The text below walks through data of paper PMC5021961, “Generation of self-clusters of galectin-1 in the farnesyl-bound form” (Scientific Reports, 2016).

This experiment has as its target T1, human galectin-1 (Gal-1) (Homo sapiens, UniProt P09382).
T1 construct: gene LGALS1
Description: Trp68 fluorescence titration (equilibrium fit with Hill coefficient […]), fluorescence lifetime, UV resonance Raman, CD, native PAGE self-clustering. Type of experiment: binding.

SMILES strings stand for the structures. pKd: −log10 of the molar value.

T1 sequence (P09382 2-135): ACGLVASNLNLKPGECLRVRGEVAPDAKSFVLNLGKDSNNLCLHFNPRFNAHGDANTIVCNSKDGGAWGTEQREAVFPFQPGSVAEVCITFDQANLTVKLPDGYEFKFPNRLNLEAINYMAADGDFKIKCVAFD

Consider `CC(C)=CCC/C(C)=C/CC/C(C)=C/CSc1ccccc1C(=O)O` [FTS, farnesyl thiosalicylic acid], for which the negative logarithm of the Kd (pKd) (as a rule, the Kd on a negative log10 scale, so that one unit is a factor of ten) is around 5.64.
